Among the data in patent US20240166681A1, “3'3' CYCLIC DINUCLEOTIDES CONTAINING ISONUCLEOTIDIC UNITS” (INSTITUTE OF ORGANIC CHEMISTRY AND BIOCHEMISTRY AS CR, V. …, priority 2021, published 2024) are EC50 values, retold here.

One test concerns the target WT STING (Homo sapiens, UniProt Q86WV6, H232R). The experiment in a line: 293T WT STING standard reporter assay. The test is classed as cell-based. Also on record: host or cells: 293T (ATCC CRL-3216), stably transfected. To be noted: 293T wtSTING-FL cells, no digitonin, 7 h incubation, luciferase reporter. As for the experimental part:
After 5 minutes incubation at room temperature (RT), 250 μL of the mixture was added dropwise to the cells in one well. Cells were incubated 36 hours at 37° C. with 5% CO2, and then detached with 0.05% Trypsin and 0.22 g/L EDTA (both cat. #L0941, Biowest, Riverside, USA).
Transfected cells were seeded onto poly-D-lysine coated six well plates at density 50,000 cells per 1 cm^2 in DMEM medium with high glucose containing 10% heat inactivated FBS, 30 μg/mL blasticidin (cat. #ant-b1-05, InvivoGen, San Diego, USA), 0.06 mg/ml Penicillin G and 0.1 mg/ml Streptomycin Sulfate (both cat. #. L0018, Biowest, Riverside, USA). The medium was replenished every 3-4 days until visible colonies of cells resistant to blasticidin were formed.
Blasticidin resistant cells stably expressing WT STING were further transfected with […] plasmid following the same procedure as described above. […] Homogeneous culture of stably double transfected cells was prepared by limiting dilution of cells in 96 well plates and wells with cells were selected that originated from a single cell.
The medium was removed next day and three-fold serial dilutions of compounds in 100 μl medium were added to the cells. The plates with cells were incubated for 7 hours at 37° C. with 5% CO2. After 50 μl of the medium was removed, 30 μl of ONE-Glo™ Luciferase Assay System reagent (cat. #E6120, Promega, Madison, USA) was added to each well and luminescence was read on Synergy H1 (Biotek, Winooski, USA). […] (cat. #tlrl-nacga23), and 2′2′-cGAMP (cat. #tlrl-nacga22) were purchased from Invivogen (San Diego, USA).

Test [1] concerns peripheral blood mononuclear cell (PBMC). The experiment in a line: Peripheral blood mononuclear cell assay (cytokine levels). The test is classed as cell-based. To be noted: 1 h with compound, wash, 15 h, average of at least two donors. The method, then:
Selected compounds were tested in an in vitro peripheral blood mononuclear cell (PBMC) assay. Freshly isolated PBMCs were seeded into U-shaped shaped 96-well plates at desity 500,000 cells per well in 50 μl of RPMI 1640 medium supplemented with 10% heat inactivated FBS. Serially dilluted tested compounds were added to wells in 50 μl of cultivation medium and cell were incubated with compounds for 1 h at 37° C. with 5% CO2. Plates with cells were then spun 500 g for 5 minutes and medium was removed. Cells were washed twice with the cell culture medium by the use of centrifugation and gently resuspended in 100 μl medium without compounds. After 15 hour incubation at 37° C. with 5% CO2, the cell culture medium was collected and the levels of interferon-alpha (INF-α), interferon-gamma (INF-γ) and tumor necrosis factor-alpha (TNF-α) were determined with ProcartaPlex Assays (ThermoFisher, Waltham, USA) and MAGPIX System (Merck KGaA, Darmstadt, Germany). GraphPad Prism (San Diego, CA, USA) was used to calculate the 50% effective concentration (EC50) from a 6-point dose-response curve. Values reported are an average of runs from at least two donors.

SMILES strings stand for the structures. Like-named read-outs stand apart in the source and are kept apart here.

WT STING, sequence (Q86WV6 whole entry H232R): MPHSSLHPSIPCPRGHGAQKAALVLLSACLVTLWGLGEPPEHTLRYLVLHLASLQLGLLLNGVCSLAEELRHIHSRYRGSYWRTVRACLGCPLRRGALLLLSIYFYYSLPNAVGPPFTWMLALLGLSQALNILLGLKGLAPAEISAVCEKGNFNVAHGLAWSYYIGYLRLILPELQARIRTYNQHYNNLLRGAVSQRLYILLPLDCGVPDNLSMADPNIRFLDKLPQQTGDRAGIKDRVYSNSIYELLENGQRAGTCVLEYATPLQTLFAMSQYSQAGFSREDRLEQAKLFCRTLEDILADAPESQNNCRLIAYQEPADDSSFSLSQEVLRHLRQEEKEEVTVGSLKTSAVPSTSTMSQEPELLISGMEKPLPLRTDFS

In the case of `CC1(C(=O)OCOP2(=O)OC[C@H]3OC[C@@H](n4cnc5c(N)ncnc54)[C@@H]3OP(=O)(OCOC(=O)C3(C)CCCCC3)OC[C@H]3O[C@@H](n4cnc5c(N)ncnc54)[C@H](F)[C@@H]3O2)CCCCC1` (single isomer, unassigned) [Compound 56d], the half-maximal effective concentration (EC50) (as a rule, the concentration at which the effect is half-maximal) on WT STING came to 0.041 µM; in test [1] (read-out: PBMC EC50 IFN-α), 0.325 µM; in test [1] (read-out: PBMC EC50 IFN-γ) it was 0.048 µM; in test [1] (read-out: PBMC EC50 TNF-α), 0.159 µM. For `CCCCCCCC(=O)OCOP1(=O)OC[C@H]2OC[C@@H](n3cnc4c(N)ncnc43)[C@@H]2OP(=O)(OCOC(=O)CCCCCCC)OC[C@H]2O[C@@H](n3cnc4c(N)ncnc43)[C@H](F)[C@@H]2O1` (single isomer, unassigned) [Compound 58c], on WT STING, the EC50 is 0.002 µM.

On to `CCC(C)(C)C(=O)OCOP1(=O)OC[C@H]2OC[C@@H](n3cnc4c(N)ncnc43)[C@@H]2OP(=O)(OCOC(=O)C(C)(C)CC)OC[C@H]2O[C@@H](n3cnc4c(N)ncnc43)[C@H](F)[C@@H]2O1` (single isomer, unassigned) [Compound 57a], for which the EC50 at WT STING amounted to 0.032 µM. Take `CCC(C)(C)C(=O)OCOP1(=O)OC[C@H]2OC[C@@H](n3cnc4c(N)ncnc43)[C@@H]2OP(=O)(OCOC(=O)C(C)(C)CC)OC[C@H]2O[C@@H](n3cnc4c(N)ncnc43)[C@H](F)[C@@H]2O1` (single isomer, unassigned) [Compound 57d]: the EC50 on WT STING came to 0.014 µM; in test [1] (read-out: PBMC EC50 IFN-α), 0.258 µM; in test [1] (read-out: PBMC EC50 IFN-γ), 0.08 µM; in test [1] (read-out: PBMC EC50 TNF-α), 0.206 µM. As for `CC(C)(C)C(=O)OCOP1(=O)OC[C@H]2OC[C@@H](n3cnc4c(N)ncnc43)[C@@H]2OP(=O)(OCOC(=O)C(C)(C)C)OC[C@H]2O[C@@H](n3cnc4c(N)ncnc43)[C@H](F)[C@@H]2O1` (single isomer, unassigned) [Compound 36c], the half-maximal effective concentration (EC50) at WT STING came to 0.052 µM.

For the compound `CCCCCCCC(=O)OCOP1(=O)OC[C@H]2OC[C@@H](n3cnc4c(N)ncnc43)[C@@H]2OP(=O)(OCOC(=O)CCCCCCC)OC[C@H]2O[C@@H](n3cnc4c(N)ncnc43)[C@H](F)[C@@H]2O1` (single isomer, unassigned) [Compound 58d], the EC50 at WT STING was 0.002 µM; in test [1] (read-out: PBMC EC50 IFN-α), 0.038 µM; in test [1] (read-out: PBMC EC50 IFN-γ) it was 0.016 µM; in test [1] (read-out: PBMC EC50 TNF-α), 0.037 µM.

`CCC(C)(C)C(=O)OCOP1(=O)OC[C@H]2OC[C@@H](n3cnc4c(N)ncnc43)[C@@H]2OP(=O)(OCOC(=O)C(C)(C)CC)OC[C@H]2O[C@@H](n3cnc4c(N)ncnc43)[C@H](F)[C@@H]2O1` (single isomer, unassigned) [Compound 57c]: the EC50 on WT STING is 0.013 µM.

As for `CC1(C(=O)OCOP2(=O)OC[C@H]3OC[C@@H](n4cnc5c(N)ncnc54)[C@@H]3OP(=O)(OCOC(=O)C3(C)CCCCC3)OC[C@H]3O[C@@H](n4cnc5c(N)ncnc54)[C@H](F)[C@@H]3O2)CCCCC1` (single isomer, unassigned) [Compound 56b], the EC50 at WT STING came out at 0.044 µM. The same measure, in the same setting: under `CCC(C)(C)C(=O)OCOP1(=O)OC[C@H]2OC[C@@H](n3cnc4c(N)ncnc43)[C@@H]2OP(=O)(OCOC(=O)C(C)(C)CC)OC[C@H]2O[C@@H](n3cnc4c(N)ncnc43)[C@H](F)[C@@H]2O1` (single isomer, unassigned) [Compound 57b] stands 0.018 µM; under `CC(C)(C)C(=O)OCOP1(=O)OC[C@H]2OC[C@@H](n3cnc4c(N)ncnc43)[C@@H]2OP(=O)(OCOC(=O)C(C)(C)C)OC[C@H]2O[C@@H](n3cnc4c(N)ncnc43)[C@H](F)[C@@H]2O1` (single isomer, unassigned) [Compound 36a], 0.088 µM.

For `CC1(C(=O)OCOP2(=O)OC[C@H]3OC[C@@H](n4cnc5c(N)ncnc54)[C@@H]3OP(=O)(OCOC(=O)C3(C)CCCCC3)OC[C@H]3O[C@@H](n4cnc5c(N)ncnc54)[C@H](F)[C@@H]3O2)CCCCC1` (single isomer, unassigned) [Compound 56c], the EC50 at WT STING amounted to 0.021 µM. On the same count and under the same terms, next, `Nc1nc2c(ncn2[C@@H]2O[C@@H]3COP(=O)(O)O[C@@H]4[C@H](O)[C@@H](COP(=O)(O)O[C@@H]2[C@@H]3O)O[C@H]4n2cnc3c(N)ncnc32)c(=O)[nH]1` [2′2′-cGAMP, reference compound]: 10.2 µM; `CC(C)(C)C(=O)OCOP1(=O)OC[C@H]2OC[C@@H](n3cnc4c(N)ncnc43)[C@@H]2OP(=O)(OCOC(=O)C(C)(C)C)OC[C@H]2O[C@@H](n3cnc4c(N)ncnc43)[C@H](F)[C@@H]2O1` (single isomer, unassigned) [Compound 36b]: 0.077 µM. On the same count and under the same terms, next, `CC1(C(=O)OCOP2(=O)OC[C@H]3OC[C@@H](n4cnc5c(N)ncnc54)[C@@H]3OP(=O)(OCOC(=O)C3(C)CCCCC3)OC[C@H]3O[C@@H](n4cnc5c(N)ncnc54)[C@H](F)[C@@H]3O2)CCCCC1` (single isomer, unassigned) [Compound 56a]: 0.285 µM; `CCCCCCCC(=O)OCOP1(=O)OC[C@H]2OC[C@@H](n3cnc4c(N)ncnc43)[C@@H]2OP(=O)(OCOC(=O)CCCCCCC)OC[C@H]2O[C@@H](n3cnc4c(N)ncnc43)[C@H](F)[C@@H]2O1` (single isomer, unassigned) [Compound 58a]: 0.005 µM. For the compound `CC(C)(C)C(=O)OCOP1(=O)OC[C@H]2OC[C@@H](n3cnc4c(N)ncnc43)[C@@H]2OP(=O)(OCOC(=O)C(C)(C)C)OC[C@H]2O[C@@H](n3cnc4c(N)ncnc43)[C@H](F)[C@@H]2O1` (single isomer, unassigned) [Compound 36d], the EC50 on WT STING came to 0.028 µM; in test [1] (read-out: PBMC EC50 IFN-α) it was 0.184 µM; in test [1] (read-out: PBMC EC50 IFN-γ), 0.115 µM; in test [1] (read-out: PBMC EC50 TNF-α) it was 0.326 µM. For the compound `CCCCCCCC(=O)OCOP1(=O)OC[C@H]2OC[C@@H](n3cnc4c(N)ncnc43)[C@@H]2OP(=O)(OCOC(=O)CCCCCCC)OC[C@H]2O[C@@H](n3cnc4c(N)ncnc43)[C@H](F)[C@@H]2O1` (single isomer, unassigned) [Compound 58b], the EC50 at WT STING worked out at 0.001 µM.
